According to PubChem BioAssay (NCI):
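Interpolation was linear, between the two tested concentrations surrounding the appropriate level; five concentrations were tested over 48 hours in 96-well plates. TGI marks complete inhibition of growth.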

Key:
Test in all cases: inhibition of tumour cell growth, NCI panel, 48 h
[1] = tested on: SNB-19 CNS
[2] = tested on: SK-MEL-2 melanoma
[3] = tested on: U251 CNS
[4] = tested on: SNB-75 CNS
[5] = tested on: TK-10 renal
[6] = tested on: A498 renal
[7] = tested on: RXF 393 renal
[8] = tested on: PC-3 prostate
[9] = tested on: OVCAR-8 ovarian
[10] = tested on: NCI-H23 lung
[11] = tested on: MCF7 breast
[12] = tested on: NCI-H522 lung
[13] = tested on: 786-0 renal
[14] = tested on: NCI/ADR-RES ovarian
[15] = tested on: HCC-2998 colon
[16] = tested on: LOX IMVI melanoma
[17] = tested on: MDA-MB-231 breast
[18] = tested on: OVCAR-4 ovarian
[19] = tested on: HOP-62 NSCLC
[20] = tested on: MDA-MB-435
[21] = tested on: HCT-15 colon
[22] = tested on: SK-MEL-28 melanoma
[23] = tested on: RPMI-8226 leukemia
[24] = tested on: SR leukemia
[25] = tested on: UACC-62 melanoma
[26] = tested on: DU-145 prostate
[27] = tested on: HOP-92 NSCLC
[28] = tested on: ACHN renal
[29] = tested on: SK-OV-3 ovarian
[30] = tested on: CAKI-1 renal
[31] = tested on: KM12 colon
[32] = tested on: SN12C renal
[33] = tested on: SF-268 CNS
[34] = tested on: NCI-H226 lung
[35] = tested on: IGROV1 ovarian
[36] = tested on: MOLT-4 leukemia
[37] = tested on: T-47D breast
[38] = tested on: SK-MEL-5 melanoma
[39] = tested on: HS 578T breast
[40] = tested on: NCI-H460 lung
[41] = tested on: A549 NSCLC
[42] = tested on: OVCAR-3 ovarian
[43] = tested on: UO-31 renal
[44] = tested on: SF-539 CNS
[45] = tested on: CCRF-CEM leukemia
[46] = tested on: MDA-N
[47] = tested on: UACC-257 melanoma
[48] = tested on: HL-60(TB) leukemia
[49] = tested on: SF-295 CNS
[50] = tested on: HCT-116 colon
[51] = tested on: SW-620 colon
[52] = tested on: MALME-3M melanoma
[53] = tested on: M14 melanoma
[54] = tested on: COLO 205 colon
[55] = tested on: BT-549 breast
[56] = tested on: OVCAR-5 ovarian
[57] = tested on: EKVX NSCLC
[58] = tested on: K-562 leukemia
[59] = tested on: HT29 colon

`COC(=O)/C=C\C(C#N)(C#N)N=Cc1ccc(C)s1` showed a TGI [1] of 32.8 µM, a TGI [2] of 20.5 µM and a TGI [3] of 28.8 µM. It also gave a TGI [4] of 19.9 µM, a TGI [5] of 3.8 µM and a TGI [6] of 34.7 µM. The TGI [7] was 3.42 µM, the TGI [8] was 6.72 µM and the TGI [9] was 9.97 µM. For the same molecule, the TGI [10] was 6.69 µM, the TGI [11] was 4.05 µM and the TGI [12] was 2.01 µM. It also gave a TGI [13] of 3.2 µM, a TGI [14] of 28.7 µM and a TGI [15] of 32.9 µM. It also gave a TGI [16] of 3.19 µM, a TGI [17] of 18.3 µM and a TGI [18] of 13.1 µM. The TGI [19] was 28.5 µM, the TGI [20] was 7.65 µM and the TGI [21] was 3.66 µM. It also gave a TGI [22] of 9.64 µM, a TGI [23] greater than 32.5 µM and a TGI [24] of 8.17 µM. The TGI [25] was 31 µM, the TGI [26] was 9.11 µM and the TGI [27] was 3.24 µM. It also gave a TGI [28] of 3.66 µM, a TGI [29] of 28.2 µM and a TGI [30] of 4.78 µM. For the same molecule, the TGI [31] was 31.8 µM, the TGI [32] was 5.91 µM and the TGI [33] was 19.1 µM. For the same molecule, the TGI [34] was 31.4 µM, the TGI [35] was 4.94 µM and the TGI [36] was 5.82 µM. The TGI [37] was 3.92 µM, the TGI [38] was 19.7 µM and the TGI [39] was 43.6 µM. It also gave a TGI [40] of 40.7 µM, a TGI [41] of 33.6 µM and a TGI [42] of 9.81 µM. For the same molecule, the TGI [43] was 3.53 µM, the TGI [44] was 10.1 µM and the TGI [45] was 1.64 µM. For the same molecule, the TGI [46] was 6.94 µM, the TGI [47] was 7.71 µM and the TGI [48] was 5.16 µM. The TGI [49] was 31.8 µM, the TGI [50] was 2.65 µM and the TGI [51] was 2.14 µM. For the same molecule, the TGI [52] was 3.09 µM, the TGI [53] was 3.5 µM and the TGI [54] was 2.93 µM. It also gave a TGI [55] of 12.2 µM, a TGI [56] of 15.9 µM and a TGI [57] of 15.3 µM. The TGI [58] was greater than 100 µM.

`NS(=O)(=O)c1ccc(Nc2c3ccccc3nc3c(C(=O)NCCCN(CCO)CCO)cccc23)cc1` showed a TGI [1] of 45.7 µM, a TGI [2] of 58.9 µM and a TGI [3] of 31.7 µM. For the same molecule, the TGI [5] was greater than 100 µM, the TGI [6] was greater than 100 µM and the TGI [8] was greater than 100 µM. For the same molecule, the TGI [9] was greater than 100 µM, the TGI [10] was 53.8 µM and the TGI [11] was 20.1 µM. For the same molecule, the TGI [12] was 44.1 µM, the TGI [13] was 45.2 µM and the TGI [14] was greater than 100 µM. For the same molecule, the TGI [15] was 54.8 µM, the TGI [16] was 59.1 µM and the TGI [17] was greater than 100 µM. The TGI [18] was greater than 100 µM, the TGI [19] was 66.1 µM and the TGI [20] was 37.2 µM. The TGI [21] was greater than 100 µM, the TGI [22] was 41.9 µM and the TGI [23] was 78.7 µM. For the same molecule, the TGI [24] was 40.6 µM, the TGI [25] was 57.8 µM and the TGI [26] was greater than 100 µM. It also gave a TGI [27] greater than 100 µM, a TGI [28] greater than 100 µM and a TGI [29] greater than 100 µM. The TGI [30] was greater than 100 µM, the TGI [31] was 38.5 µM and the TGI [32] was 46.5 µM. It also gave a TGI [33] of 45.5 µM, a TGI [35] of 68.2 µM and a TGI [36] of 99 µM. The TGI [37] was 44.2 µM, the TGI [38] was 32.4 µM and the TGI [39] was 53.8 µM. For the same molecule, the TGI [40] was 36.9 µM, the TGI [41] was 69.2 µM and the TGI [42] was 62.5 µM. It also gave a TGI [43] greater than 100 µM, a TGI [45] of 58.6 µM and a TGI [46] of 41.9 µM. It also gave a TGI [47] of 67.6 µM, a TGI [49] greater than 100 µM and a TGI [51] of 52.7 µM. It also gave a TGI [52] of 42 µM, a TGI [53] of 45.1 µM and a TGI [54] of 30.2 µM. The TGI [55] was 52.7 µM, the TGI [56] was 98.4 µM and the TGI [57] was greater than 100 µM. It also gave a TGI [58] greater than 100 µM and a TGI [59] of 77 µM.
